Assay [1] has as its target T1, flag-tagged HIF1α (AA 786-826) / His6-tagged p300 (AA 323-423) complex (Homo sapiens, UniProt Q09472).
T1 construct: His6-tagged p300 (AA 323-423); made in house; host or cells: E. coli (pETDuet vector)
In words: HIF1α p300 displacement assay (TR FRET, +CHAPS). It counts as binding. Particulars: read-out: IC50 (nM) (HIF1α_p300 Displacement + CHAPS). The gist of the method: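 The co-expressed flag-HIF1α (786-826)/His6-p300 (323-423) complex, purified from E. coli with 0.1 mM ZnSO4, was used at 300 nM final with competitor peptides for 1 h at room temperature. Buffer was 150 mM NaCl, 20 mM HEPES pH 7.4, 7.5 mM CHAPS and 1 mM DTT. Anti-Flag-K (0.5 μM) and anti-His-D2 (4 nM) were then added for 2 h, and IC50s were fitted from the TR-FRET ratio.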

A further assay concerns HRE-bla ME-180 cells. In words: Reporter gene assay (HRE-bla ME-180 HIF reporter, GeneBLAzer). It counts as cell-based, human. Particulars: for EC50: 24 hour normoxia. The gist of the method:
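A FRET β-lactamase readout of HIF transcription was used. After compound treatment in 0.3% DMSO/media under normoxic conditions, 20 μl of 6× LiveBLAzer-FRET B/G (CCF4-AM) substrate was added. Plates sat 3 hr at room temperature in the dark and were read at 409 Ex/460Em and 409Ex/530Em on a Synergy 2. Inhibition was compared against DMSO vehicle controls, with chetomin as positive control.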
For orientation: In a reporter assay the amount or activity of a reporter protein is the signal.

Bridge positions count the residues as written; N and C are the ends. Square brackets hold non-standard residues; d marks the D form. Peptide text beside a SMILES is read from it. R8 = C=CCCCCCC[C@@](C)(N)C(=O)O; S5 = C=CCCC[C@](C)(N)C(=O)O; Nle = CCCC[C@H](N)C(=O)O A value given as a limit tells only on which side of the number the result lay.

By IC50 is commonly meant the concentration at which inhibition is half-maximal. For orientation: EC50 means the concentration giving half of the maximal effect. For the compound `CC[C@H](C)[C@H](NC(=O)[C@H](Cc1ccccc1)NC(C)=O)C(=O)N[C@@H](CC(=O)O)C(=O)N[C@@H](CCC(=O)O)C(=O)N[C@@]1(C)CCCC=CCCC[C@@](C)(C(=O)N[C@@H](CC(C)C)C(=O)N[C@H](C(=O)N[C@H](C(=O)N[C@@H](CCC(=O)O)C(=O)N[C@@H](CCSC)C(=O)N[C@@H](C)C(=O)N[C@@H](CC(C)C)C(=O)N[C@@H](CC(=O)O)C(=O)N[C@@H](CCCNC(=N)N)C(=O)N[C@H](C(=O)N[C@@H](CCCCN)C(=O)N[C@@H](CCC(=O)O)C(=O)N[C@@H](CC(C)C)C(=O)N2CCC[C@H]2C(=O)N[C@@H](CCC(=O)O)C(=O)N[C@@H](CC(C)C)C(=O)N[C@@H](Cc2c[nH]c3ccccc23)C(=O)N[C@@H](CC(C)C)C(N)=O)[C@@H](C)CC)[C@@H](C)CC)C(C)C)NC(=O)[C@H](CCSC)NC(=O)[C@H](CC(C)C)NC(=O)[C@H](C(C)C)NC1=O` [SP-107] (Ac-FIDE[S5]VLM[S5]LVIEMALDRIKELPELWL-NH2; staple 5-9), in assay [1], the IC50 was not above 200 nM. The EC50 in the assay with HRE-bla ME-180 cells is more than 30 µM.

For the compound `CCCC[C@H](NC(=O)[C@H](C)NC(=O)[C@@H](NC(=O)[C@@H](NC(=O)[C@H](CC(C)C)NC(=O)[C@]1(C)CCCC=CCCC[C@](C)(NC(=O)[C@H](CCC(=O)O)NC(=O)[C@H](CC(=O)O)NC(=O)[C@@H](NC(=O)[C@H](Cc2ccccc2)NC(C)=O)[C@@H](C)CC)C(=O)N[C@@H](C(C)C)C(=O)N[C@@H](CC(C)C)C(=O)N[C@@H](CCCC)C(=O)N1)C(C)C)[C@@H](C)CC)C(=O)N[C@@H](C)C(=O)N[C@@H](CC(C)C)C(N)=O` [SP-122] (Ac-FIDE[S5]VL[Nle][S5]LVIA[Nle]AL-NH2; staple 5-9), the IC50 in assay [1] was 200 to 400 nM. Moreover, in the assay with HRE-bla ME-180 cells, the “18 h Avg % max inhibition at top conc (HIF Rptr-24 hrs normoxia) (μM)” value (“18 h Avg % max inhibition at top conc” below) was “++ (≤10 but <25: ++)” and the EC50 is more than 30 µM.

Regarding `CC[C@H](C)[C@H](NC(=O)[C@H](Cc1ccccc1)NC(C)=O)C(=O)N[C@@H](CC(N)=O)C(=O)N[C@@H](CCC(=O)O)C(=O)N[C@@H](CCC(=O)O)C(=O)N[C@H](C(=O)N[C@@H](CC(C)C)C(=O)N[C@@H](CCSC)C(=O)N[C@@]1(C)CCCC=CCCC[C@@](C)(C(=O)N[C@@H](CCSC)C(=O)N[C@@H](C)C(=O)N[C@@H](CC(C)C)C(N)=O)NC(=O)[C@H]([C@@H](C)CC)NC(=O)[C@H](C(C)C)NC(=O)[C@H](CC(C)C)NC1=O)C(C)C` [SP-232] (Ac-FINEEVLM[S5]LVI[S5]MAL-NH2; staple 9-13), the IC50 in assay [1] is 400 to 700 nM. In the assay with HRE-bla ME-180 cells, the “18 h Avg % max inhibition at top conc” value was “++ (≤10 but <25: ++)” and the EC50 was more than 30 µM.

For the compound `CCCC[C@H](NC(=O)[C@H](CCC(=O)O)NC(=O)[C@@H](NC(=O)[C@@H](NC(=O)[C@H](CC(C)C)NC(=O)[C@]1(C)CCCC=CCCC[C@](C)(NC(=O)[C@H](CCC(=O)O)NC(=O)[C@H](C)NC(=O)[C@@H](NC(=O)[C@H](Cc2ccccc2)NC(C)=O)[C@@H](C)CC)C(=O)N[C@@H](C(C)C)C(=O)N[C@@H](CC(C)C)C(=O)N[C@@H](CCCC)C(=O)N1)C(C)C)[C@@H](C)CC)C(=O)N[C@@H](C)C(=O)N[C@@H](CC(C)C)C(=O)N[C@@H](CC(=O)O)C(=O)N[C@@H](C)C(=O)N[C@H](C(N)=O)[C@@H](C)CC` [SP-120] (Ac-FIAE[S5]VL[Nle][S5]LVIE[Nle]ALDAI-NH2; staple 5-9), in assay [1], the IC50 was not above 200 nM. Besides, in the assay on HRE-bla ME-180 cells, the “18 h Avg % max inhibition at top conc” value is listed as “+ (<10: +)” and the EC50 is more than 30 µM.

Regarding `CCCC[C@H](NC(=O)[C@H](CC(C)C)NC(=O)[C@@H](NC(=O)[C@H](CCC(=O)O)NC(=O)[C@H](CCC(=O)O)NC(=O)[C@H](CC(=O)O)NC(=O)[C@@H](NC(=O)[C@H](Cc1ccccc1)NC(C)=O)[C@@H](C)CC)C(C)C)C(=O)N[C@@]1(C)CCCC=CCCC[C@@](C)(C(=O)N[C@@H](CCCC)C(=O)N[C@@H](C)C(=O)N[C@@H](CC(C)C)C(N)=O)NC(=O)[C@H]([C@@H](C)CC)NC(=O)[C@H](C(C)C)NC(=O)[C@H](Cc2ccccc2)NC1=O` [SP-219] (Ac-FIDEEVL[Nle][S5]FVI[S5][Nle]AL-NH2; staple 9-13), in assay [1], the IC50 lay in the range of 400 to 700 nM. In the assay with HRE-bla ME-180 cells, the “18 h Avg % max inhibition at top conc” value is listed as “++ (≤10 but <25: ++)” and the EC50 was more than 30 µM.

As to `CCCC[C@@H]1NC(=O)[C@H](CC(C)C)NC(=O)[C@H](CCCNC(=N)N)NC(=O)[C@@](C)(NC(=O)[C@H](CCC(=O)O)NC(=O)[C@H](CC(=O)O)NC(=O)[C@@H](NC(=O)[C@H](Cc2ccccc2)NC(C)=O)[C@@H](C)CC)CCCC=CCCCC2(CCCC=CCCC[C@](C)(C(=O)N[C@@H](CCCC)C(=O)N[C@@H](C)C(=O)N[C@@H](CC(C)C)C(N)=O)NC(=O)[C@H]([C@@H](C)CC)NC(=O)[C@H](C(C)C)NC(=O)[C@H](CC(C)C)NC2=O)NC1=O` (stereo partly drawn) [SP-206], in assay [1], the IC50 was more than 700 nM. Besides, in the assay with HRE-bla ME-180 cells, the “18 h Avg % max inhibition at top conc” value is on record as “+ (<10: +)” and the EC50 is more than 30 µM.

Take `CC[C@H](C)[C@H](NC(=O)[C@H](Cc1ccccc1)NC(C)=O)C(=O)N[C@@H](CC(=O)O)C(=O)N[C@@H](CCC(=O)O)C(=O)N[C@@H](CO)C(=O)N[C@H](C(=O)N[C@@H](CC(C)C)C(=O)N[C@@H](CCSC)C(=O)N[C@@]1(C)CCCC=CCCC[C@@](C)(C(=O)N[C@@H](CCSC)C(=O)N[C@@H](C)C(=O)N[C@@H](CC(C)C)C(N)=O)NC(=O)[C@H]([C@@H](C)CC)NC(=O)[C@H](C(C)C)NC(=O)[C@H](CC(C)C)NC1=O)C(C)C` [SP-238] (Ac-FIDESVLM[S5]LVI[S5]MAL-NH2; staple 9-13): the IC50 in assay [1] lay within 400 to 700 nM. Besides, in the assay on HRE-bla ME-180 cells, the “18 h Avg % max inhibition at top conc” value is “++ (≤10 but <25: ++)” and the concentration giving a half-maximal response (EC50) was more than 30 µM.

Consider `CCCC[C@H](NC(=O)[C@H](CCC(=O)O)NC(=O)[C@]1(C)CCCC=CCCCCCC[C@@](C)(NC(=O)[C@H](C)NC(=O)[C@H](C)NC(=O)[C@@H](NC(=O)[C@H](CC(N)=O)NC(=O)[C@@H](NC(=O)[C@]2(C)CCCC=CCCCCCC[C@@](C)(NC(=O)[C@H](C)NC(=O)CNC(=O)[C@H](CCC(N)=O)NC(=O)[C@H](CC(C)C)NC(=O)[C@H](CC(C)C)NC(C)=O)C(=O)N[C@@H](CC(C)C)C(=O)N[C@@H](CC(C)C)C(=O)N[C@@H](CCCNC(=N)N)C(=O)N[C@@H](C)C(=O)N[C@@H](CC(C)C)C(=O)N[C@@H](C)C(=O)N2)C(C)C)[C@@H](C)CC)C(=O)N[C@@H](C(C)C)C(=O)N[C@@H](CC(C)C)C(=O)N[C@@H](CCCC)C(=O)N[C@@H](CO)C(=O)N[C@@H](CC(C)C)C(=O)N[C@@H](C(C)C)C(=O)N1)C(N)=O` [SP-356] (Ac-LLQGA[R8]LLRALA[S5]VNIAA[R8]VL[Nle]SLV[S5]E[Nle]-NH2; staple 6-13, 19-26), for which the IC50 in assay [1] is more than 700 nM.

With `CCCC[C@H](NC(=O)[C@H](CC(C)C)NC(=O)[C@@H](NC(=O)[C@H](CCC(=O)O)NC(=O)[C@H](CCC(=O)O)NC(=O)[C@H](CC(=O)O)NC(=O)[C@@H](NC(=O)[C@H](CC(N)=O)NC(=O)[C@@H](NC(=O)[C@H](CCC(N)=O)NC(=O)[C@H](CC(=O)O)NC(=O)[C@H](CC(C)C)NC(=O)[C@H](C)NC(=O)[C@H](CCCNC(=N)N)NC(=O)[C@]1(C)CCCC=CCCC[C@](C)(NC(=O)[C@H](CCC(N)=O)NC(=O)[C@H](CC(C)C)NC(=O)[C@H](CC(C)C)NC(C)=O)C(=O)N[C@@H](CCC(=O)O)C(=O)N[C@@H](CCC(=O)O)C(=O)N[C@@H](CC(C)C)C(=O)N1)C(C)C)[C@@H](C)CC)C(C)C)C(=O)N[C@@]1(C)CCCC=CCCC[C@@](C)(C(=O)N[C@@H](CCCC)C(=O)N[C@@H](C)C(=O)N[C@@H](CC(C)C)C(N)=O)NC(=O)[C@H]([C@@H](C)CC)NC(=O)[C@H](C(C)C)NC(=O)[C@H](CC(C)C)NC1=O` [SP-370] (Ac-LLQ[S5]EEL[S5]RALDQVNIDEEVL[Nle][S5]LVI[S5][Nle]AL-NH2; staple 4-8, 23-27), in assay [1], the IC50 was more than 700 nM.

As for `CC[C@H](C)[C@H](NC(=O)[C@H](Cc1ccccc1)NC(C)=O)C(=O)N[C@@H](CC(=O)O)C(=O)N[C@@H](CCC(=O)O)C(=O)N[C@]1(C)CCCCCCC=CCCC[C@@](C)(C(=O)N[C@@H](CCC(=O)O)C(=O)N[C@@H](CCSC)C(=O)N[C@@H](C)C(=O)N[C@@H](C)C(N)=O)NC(=O)[C@H](C(C)C)NC(=O)[C@H](CC(C)C)NC(=O)[C@H](CO)NC(=O)[C@H](CCSC)NC(=O)[C@H](CC(C)C)NC(=O)[C@H](C(C)C)NC1=O` [SP-178] (Ac-FIDE[R8]VLMSLV[S5]EMAA-NH2; staple 5-12), the IC50 in assay [1] is more than 700 nM.

`CCCC[C@@H]1NC(=O)[C@H](CC(C)C)NC(=O)[C@H](C(C)C)NC(=O)[C@](C)(NC(=O)[C@H](CCC(=O)O)NC(=O)[C@H](CC(=O)O)NC(=O)[C@@H](NC(=O)[C@H](Cc2ccccc2)NC(C)=O)[C@@H](C)CC)CCCCCCC=CCCC[C@@](C)(C(=O)N[C@@H](CCC(=O)O)C(=O)N[C@@H](CCSC)C(=O)NCC(N)=O)NC(=O)[C@H](C(C)C)NC(=O)[C@H](CC(C)C)NC(=O)[C@H](CO)NC1=O` [SP-185] (Ac-FIDE[R8]VL[Nle]SLV[S5]EMG-NH2; staple 5-12): in assay [1], the IC50 was more than 700 nM.
